Test results as given in US11576894B2, “Combination therapy for the treatment of diabetes” (Janssen Pharmaceutica N.V., priority 2009, dated 2023).
Counter-ions that a name gives are not always drawn.

Tests used:
Male ob/ob mice = assay: In vivo ob/ob mouse study: 22 days oral q.d., glucose, OGTT, plasma insulin, body weight; details: for Body Weight / Fed Glucose / Plasma Insulin: 22 days; for Blood Glucose AUC during OGTT: OGTT day 18, glucose 0.5 g/kg
Experimental: The mice were allowed ad libitum access to water and chow (commercially supplied diet). […] On the first morning, the mice were grouped as noted above and fed glucose. […] Body weight, food intake and fed blood glucose levels were measured weekly. An oral glucose tolerance test (OGTT) was conducted on the mice on day 18, after overnight fasting. […] Following completion of the study, final body weight and blood glucose level of were collected and the mice in each group was sacrificed to collect blood for biochemistry analysis, including fed blood glucose levels, fasted blood glucose levels, blood glucose levels during OGTT, plasma insulin and body weight change.

[1] = tested on: Male C57BL/6 mice (high fat diet, Steptozotocin); assay: In vivo mouse study: high fat diet / STZ C57BL/6 mice, 3 weeks oral treatment, fed and fasted glucose, OGTT; details: for Fed Glucose / Fed Glucose (% relative to the Vehicle): 3 weeks; for Blood Glucose AUC during OGTT / Blood Glucose AUC during OGTT (% relative to the Vehicle): glucose 2 g/kg; for Fasted Glucose / Fasted Glucose (% relative to the Vehicle): overnight fast from day 18
From the text: All the mice were then kept on a high fat diet for another 3 weeks. […] At the start of the pre-dose period, each mouse was assigned a predose number, which was indicated on its cage card. After assignment to dosage groups, each mouse was assigned a unique study identification number (which will be indicated on its cage card) and identified by permanent marker on its tail. Mice were housed 5 mice per cage in stainless steel cages. […] The temperature and humidity ranges will be monitored by a hygrothermograph. Mice were fed ad libitum (except where noted) with high-fat diet prepared in Southern University. Water was provided ad libitum by water bottles. The quarantine period was 5 days. The test compound or vehicle was administered orally by gavage. The dosage levels were chosen to represent a range of exposures with pharmacology effects. […] The mice were randomly divided into six testing group of 10 mice per group. Each group was treated for 3 weeks, via oral administration, with one of the following regimens: (a) vehicle; […] On Day 1 (the first day of dosing), dosing at all dose levels was initiated. All groups were then dosed for 20 additional days. The following pharmacological parameters were measured during and at the end of this study: […] The following morning, a basal fasted blood glucose level was determined. […] Food was replaced after the last time point of blood glucose measurement. The pharmacological significance of any findings was determined based on statistical analysis and historical control data. Statistical analyses were performed utilizing GraphPadPRISM.

[2] = Metformin HCl 250 mg/kg P.O. q.d.

## Cc1ccc([C@@H]2O[C@H](CO)[C@@H](O)[C@H](O)[C@H]2O)cc1Cc1ccc(-c2ccc(F)cc2)s1 [Cmpd (I-X)]
Male ob/ob mice; 10 mg/kg
  blood glucose levels (result in words): significantly reduced
  glucose excursion during OGTT (result in words): improved
Male ob/ob mice; Cmpd (I-X) 1 mg/kg P.O. q.d.
  Fasted Glucose: 159 ± 12 mg/dL
  Body Weight: 53 ± 0.8 g
  Fed Glucose: 312 ± 34 mg/dL
  Plasma Insulin: 46.3 ± 3.5 ng/dL
  Blood Glucose AUC during OGTT: 80 ± 4 mg/dL * 2 h
Male ob/ob mice; Cmpd (I-X) 10 mg/kg P.O. q.d.
  Fasted Glucose: 86 ± 4 mg/dL
  Body Weight: 54 ± 0.8 g
  Fed Glucose: 254 ± 22 mg/dL
  Plasma Insulin: 44.0 ± 3.6 ng/dL
  Blood Glucose AUC during OGTT: 48 ± 3 mg/dL * 2 h

## OC[C@H]1O[C@@H](c2ccc(Cl)c(Cc3ccc(-c4ccc(F)nc4)s3)c2)[C@H](O)[C@@H](O)[C@@H]1O [Cmpd (I-Y)]
[1]; Cmpd (I-Y) 1 mg/kg oral
  Fed Glucose: 360.7 ± 15.7 mg/dL
  Fed Glucose (% relative to the Vehicle): 86% ± 4%
  Blood Glucose AUC during OGTT: 31562 ± 1447 mg/dL * 2 h
  Blood Glucose AUC during OGTT (% relative to the Vehicle): 85% ± 4%
  Fasted Glucose: 77.8 ± 4.9 mg/dL
  Fasted Glucose (% relative to the Vehicle): 89.4% ± 5.7%
[1]; Cmpd (I-Y) 10 mg/kg oral
  Fed Glucose: 290.5 ± 24.8 mg/dL
  Fed Glucose (% relative to the Vehicle): 69% ± 6%
  Blood Glucose AUC during OGTT: 25209 ± 894 mg/dL * 2 h
  Blood Glucose AUC during OGTT (% relative to the Vehicle): 68% ± 2%
  Fasted Glucose: 66.9 ± 3.1 mg/dL
  Fasted Glucose (% relative to the Vehicle): 76.9% ± 3.6%

## CN(C)C(=N)N=C(N)N [Metformin HCl, metformin hydrochloride, reference compound]
Male ob/ob mice; [2]
  Fasted Glucose: 166 ± 16 mg/dL
  Body Weight: 52 ± 0.9 g
  Fed Glucose: 371 ± 35 mg/dL
  Plasma Insulin: 48.4 ± 2.0 ng/dL
  Blood Glucose AUC during OGTT: 91 ± 9 mg/dL * 2 h

## CN(C)C(=N)N=C(N)N [Metformin, reference compound]
[1]; Metformin 500 mg/kg oral
  Fed Glucose: 345.4 ± 28.4 mg/dL
  Fed Glucose (% relative to the Vehicle): 82% ± 7%
  Blood Glucose AUC during OGTT: 34023 ± 1618 mg/dL * 2 h
  Blood Glucose AUC during OGTT (% relative to the Vehicle): 92% ± 4%
  Fasted Glucose: 74.7 ± 3.8 mg/dL
  Fasted Glucose (% relative to the Vehicle): 85.9% ± 4.4%
Male ob/ob mice; 250 mg/kg
  effect on blood glucose control (result in words): did not have an effect
